Patent US8461183B2, “PPAR agonist compounds, preparation and uses” (Genfit, priority 2008, dated 2013)

Legend:
Assay type in all cases: cell-based
hPPARα = molecular target: T1, hPPARα (Homo sapiens, UniProt Q07869); test: Gal4-hPPARα chimera transactivation (luciferase) in COS-7 cells; details: COS-7 cells, Gal4-hPPARα, 24 hours; for EC50: luciferase, read-out: PPARα EC50; for Emax: relative to maximum activation obtained with fenofibric acid, read-out: PPARα TOP % (maximum activation)
T1 construct: corresponding to the DEF domains (structural elements of the promoter of the PPARs: D=hinge, EF=ligand fixation domain and AF2 fixation site); expressed in transfected cells; host or cells: COS-7 (monkey kidney fibroblasts)
T1 sequence (Q07869 239-466 limits assumed): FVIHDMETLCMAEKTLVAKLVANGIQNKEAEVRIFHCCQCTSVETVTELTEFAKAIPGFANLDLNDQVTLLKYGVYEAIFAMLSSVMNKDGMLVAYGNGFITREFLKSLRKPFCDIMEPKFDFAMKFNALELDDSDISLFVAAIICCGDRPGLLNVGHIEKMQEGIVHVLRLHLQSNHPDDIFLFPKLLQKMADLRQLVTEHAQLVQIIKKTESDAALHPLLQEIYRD
How it was run: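 COS-7 cells transiently co-transfected with Gal4 DBD–human PPARα, γ or δ DEF-domain chimeras plus Gal4(RE)_TkpGL3 luciferase reporter (1/10), seeded serum-free, then compound-treated 24 h at 37 °C in 1% Ultroser. Luciferase read after lysis; EC50 and TOP % relative to maximal activation by fenofibric acid (α), rosiglitazone (γ) or GW501516 (δ).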

hPPARγ = molecular target: T2, hPPARγ (Homo sapiens, UniProt P37231); test: Gal4-hPPARγ chimera transactivation (luciferase) in COS-7 cells; details: 24 hours; for EC50: luciferase, read-out: PPARγ EC50; for Emax: relative to maximum activation obtained with rosiglitazone, read-out: PPARγ TOP % (maximum activation)
T2 construct: corresponding to the DEF domains (structural elements of the promoter of the PPARs: D=hinge, EF=ligand fixation domain and AF2 fixation site); expressed in transfected cells; host or cells: COS-7 (monkey kidney fibroblasts)
T2 sequence (P37231 238-503 limits assumed): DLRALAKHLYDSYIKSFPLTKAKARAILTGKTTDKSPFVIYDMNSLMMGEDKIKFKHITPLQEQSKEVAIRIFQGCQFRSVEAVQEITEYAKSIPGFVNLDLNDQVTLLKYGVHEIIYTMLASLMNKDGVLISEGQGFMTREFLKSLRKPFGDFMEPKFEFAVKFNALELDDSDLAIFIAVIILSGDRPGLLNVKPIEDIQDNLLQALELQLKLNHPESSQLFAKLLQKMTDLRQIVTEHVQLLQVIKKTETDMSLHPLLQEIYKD
How it was run: (§1)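 COS-7 cells transfected with Gal4-DBD fused to human PPARγ or PPARδ DEF (hinge/ligand-binding) domain plus Gal4(RE)_TkpGL3 luciferase reporter (1:10).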

hPPARδ = molecular target: T3, hPPARδ (Homo sapiens, UniProt Q03181); test: Gal4-hPPARδ chimera transactivation (luciferase) in COS-7 cells; details: COS-7 cells, Gal4-hPPARδ, 24 hours; for EC50: luciferase, read-out: PPARδ EC50; for Emax: relative to maximum activation obtained with GW501516, read-out: PPARδ TOP % (maximum activation)
T3 construct: corresponding to the DEF domains (structural elements of the promoter of the PPARs: D=hinge, EF=ligand fixation domain and AF2 fixation site); expressed in transfected cells; host or cells: COS-7 (monkey kidney fibroblasts)
T3 sequence (Q03181 211-439 limits assumed): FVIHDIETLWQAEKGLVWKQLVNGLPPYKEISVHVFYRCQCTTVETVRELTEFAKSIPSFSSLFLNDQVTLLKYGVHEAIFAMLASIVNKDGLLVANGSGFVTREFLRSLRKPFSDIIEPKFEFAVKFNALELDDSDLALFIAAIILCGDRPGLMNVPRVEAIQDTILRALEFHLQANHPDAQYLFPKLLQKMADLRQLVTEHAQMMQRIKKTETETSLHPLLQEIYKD
How it was run: as §1

EC50 (hPPARα) [nM]	Emax (hPPARα) [%]	EC50 (hPPARγ) [nM]	Emax (hPPARγ) [%]	EC50 (hPPARδ) [nM]	Emax (hPPARδ) [%]	SMILES
1470	66.7	17700	70.5	8670	115	COc1nc(-c2ccccc2)ccc1CNc1ccc(OCC(=O)O)cc1 [Cpd 4, 2-(4-(((2-methoxy-6-phenylpyridin-3yl)methyl)amino)phenoxy)ethanoic acid]
2370	68	1290	87	3130	95.1	COc1nc(-c2ccccc2)ccc1CNc1ccc(CCC(=O)O)cc1 [Cpd 19, 3-(4-(((2-methoxy-6-phenylpyridin-3-yl)methyl)amino)phenyl)propanoic acid]
143	48.3	12400	39.1	2000	109	COc1nc(-c2ccccc2)ccc1COc1ccc(OCC(=O)O)cc1 [Cpd 2, 2-(4-((2-methoxy-6-phenylpyridin-3-yl)methoxy)phenoxy)ethanoic acid]
371	76.8	4490	65.7	784	94.1	COc1nc(-c2ccc(C(F)(F)F)cc2)ccc1COc1ccc(OCC(=O)O)cc1 [Cpd 24, 2-(4-((2-methoxy-6-(4-(trifluoromethyl)phenyl)pyridin-3-yl)methoxy)-phenoxy)ethanoic acid]
